In ChEMBL document CHEMBL3272295, “Drugs derived from cannabinoids. 5. delta6a,10a-Tetrahydrocannabinol and heterocyclic analogs containing aromatic side chains” (J Med Chem, 1976):

Key:
Rattus norvegicus [1] = experiment: Antipsychotic activity in rat assessed as reduction of methamphetamine-induced hyperactivity at 10 mg/kg, po administered prior to methamphetamine challenge relative to vehicle-treated control; type: functional; parameters: scale not given: the % may be the effect or the level left
Rattus norvegicus [2] = experiment: Antipsychotic activity in rat assessed as reduction of methamphetamine-induced hyperactivity at 20 mg/kg, po administered prior to methamphetamine challenge relative to vehicle-treated control; type: functional; parameters: scale not given: the % may be the effect or the level left
Mus musculus [3] = experiment: Analgesic activity in po dosed mouse assessed as inhibition of acetic acid-induced writhing administered 30 mins prior to acetic acid challenge measured after 5 mins for 20 mins; type: functional
Rattus norvegicus [4] = experiment: Analgesic activity in Sprague-Dawley rat assessed as increase in pain threshold at 20 mg/kg, po after 15 to 90 mins by tail flick test; type: functional
Mus musculus [5] = experiment: Antianxiety activity in albino BALB/cJ mouse assessed as reduction in footshock-induced fighting behavior at 5 mg/kg, po after 30 to 90 mins; type: functional; parameters: scale not given: the % may be the effect or the level left
Rattus norvegicus [6] = experiment: Antianxiety activity in Long-Evans rat assessed as reduction in motor activity at 10 mg/kg, po after 2 hrs relative to vehicle-treated control; type: functional; parameters: scale not given: the % may be the effect or the level left
Rattus norvegicus [7] = experiment: Antipsychotic activity in rat assessed as reduction of methamphetamine-induced hyperactivity at 5 mg/kg, po administered prior to methamphetamine challenge relative to vehicle-treated control; type: functional; parameters: scale not given: the % may be the effect or the level left
Rattus norvegicus [8] = experiment: Analgesic activity in Sprague-Dawley rat assessed as increase in pain threshold at 60 mg/kg, po after 15 to 90 mins by tail flick test; type: functional
Rattus norvegicus [9] = experiment: Antianxiety activity in Long-Evans rat assessed as reduction in motor activity at 5 mg/kg, po after 2 hrs relative to vehicle-treated control; type: functional; parameters: scale not given: the % may be the effect or the level left
Rattus norvegicus [10] = experiment: Antianxiety activity in Long-Evans rat assessed as reduction in motor activity at 40 mg/kg, po after 2 hrs relative to vehicle-treated control; type: functional; parameters: scale not given: the % may be the effect or the level left
Rhesus monkey = experiment: Antianxiety activity in po dosed rhesus monkey assessed as antiagressive behavior measured every hour post dosing; type: functional; details: Macaca mulatta, read-out: MED
Mus musculus [11] = experiment: Increase in footshock-induced fighting behavior in albino BALB/cJ mouse at 10 mg/kg, po after 30 to 90 mins; type: functional
Rattus norvegicus [12] = species: Rattus norvegicus; experiment: animal or person; type: functional; details: Charles River, route oral
Description: Antidiarrheal activity in Charles River rat assessed as inhibition of castor oil-induced diarrhea by measuring protected animals at 0.5 mg/kg, po administered 1 hr prior to castor oil challenge measured after 1 hr relative to vehicle-treated control

[13] = Acute toxicity in po dosed mouse; type: organism-based; details: in vivo
Mus musculus [14] = experiment: Analgesic activity in mouse assessed as inhibition of acetic acid-induced writhing at 16 mg/kg, po administered 30 mins prior to acetic acid challenge measured after 5 mins for 20 mins; type: functional
Rattus norvegicus [15] = experiment: Antiulcer activity in albino Sprague-Dawley rat reserpine ulcer model assessed as prevention of reserpine-induced gastric lesions by measuring ulcer index scores at 5 mg/kg, po administered 30 mins prior to reserpine challenge measured after 6 hrs; type: functional, Stomach
Rattus norvegicus [16] = experiment: Antiulcer activity in albino Sprague-Dawley rat shay ulcer model assessed as ulcer index scores at 5 mg/kg administered intraduodenally post pyloric ligation measured after 18.5 hrs relative to vehicle-treated control; type: functional; details: route intraduodenal
Rattus norvegicus [17] = experiment: Antisecretory activity in Sprague-Dawley rat assessed as decrease in acid output at 1 mg/kg, po administered 30 mins prior to pylorus ligation measured after 4 hrs relative to control; type: functional; parameters: scale not given: the % may be the effect or the level left
Rattus norvegicus [18] = experiment: Antisecretory activity in Sprague-Dawley rat assessed as decrease in acid output at 2.5 mg/kg, po administered 30 mins prior to pylorus ligation measured after 4 hrs relative to control; type: functional; parameters: scale not given: the % may be the effect or the level left
Rattus norvegicus [19] = experiment: Antisecretory activity in Sprague-Dawley rat assessed as decrease in acid output at 5 mg/kg, po administered 30 mins prior to pylorus ligation measured after 4 hrs relative to control; type: functional; parameters: scale not given: the % may be the effect or the level left
Rattus norvegicus [20] = experiment: Antisecretory activity in Sprague-Dawley rat assessed as decrease in acid output at 10 mg/kg, po administered 30 mins prior to pylorus ligation measured after 4 hrs relative to control; type: functional; parameters: scale not given: the % may be the effect or the level left
Rattus norvegicus [21] = experiment: Increase in pepsin concentration in Sprague-Dawley rat at 1 mg/kg, po administered 30 mins prior to pylorus ligation measured after 4 hrs relative to control; type: functional
Rattus norvegicus [22] = experiment: Increase in pepsin concentration in Sprague-Dawley rat at 2.5 mg/kg, po administered 30 mins prior to pylorus ligation measured after 4 hrs relative to control; type: functional
Rattus norvegicus [23] = experiment: Increase in pepsin concentration in Sprague-Dawley rat at 5 mg/kg, po administered 30 mins prior to pylorus ligation measured after 4 hrs relative to control; type: functional
Rattus norvegicus [24] = experiment: Increase in pepsin concentration in Sprague-Dawley rat at 10 mg/kg, po administered 30 mins prior to pylorus ligation measured after 4 hrs relative to control; type: functional
Rattus norvegicus [25] = experiment: Antisecretory activity in Sprague-Dawley rat assessed as decrease in pepsin output at 1 mg/kg, po administered 30 mins prior to pylorus ligation measured after 4 hrs relative to control; type: functional; parameters: scale not given: the % may be the effect or the level left
Rattus norvegicus [26] = experiment: Antisecretory activity in Sprague-Dawley rat assessed as decrease in pepsin output at 2.5 mg/kg, po administered 30 mins prior to pylorus ligation measured after 4 hrs relative to control; type: functional; parameters: scale not given: the % may be the effect or the level left
Rattus norvegicus [27] = experiment: Antisecretory activity in Sprague-Dawley rat assessed as decrease in pepsin output at 5 mg/kg, po administered 30 mins prior to pylorus ligation measured after 4 hrs relative to control; type: functional; parameters: scale not given: the % may be the effect or the level left
Rattus norvegicus [28] = experiment: Antisecretory activity in Sprague-Dawley rat assessed as decrease in pepsin output at 10 mg/kg, po administered 30 mins prior to pylorus ligation measured after 4 hrs relative to control; type: functional; parameters: scale not given: the % may be the effect or the level left
Rattus norvegicus [29] = experiment: Antiulcer activity in albino Sprague-Dawley rat stress ulcer model assessed as prevention of stress-induced gastric lesions by measuring ulcer index score at 10 mg/kg, po administered 30 mins prior to stress measured after 4 hrs; type: functional, Stomach
Rattus norvegicus [30] = experiment: Antiulcer activity in albino Sprague-Dawley rat reserpine ulcer model assessed as prevention of reserpine-induced gastric lesions by measuring ulcer index scores at 10 mg/kg, po administered 30 mins prior to reserpine challenge measured after 6 hrs; type: functional, Stomach
Rattus norvegicus [31] = experiment: Antiulcer activity in albino Sprague-Dawley rat stress ulcer model assessed as prevention of stress-induced gastric lesions at 5 mg/kg, po administered 30 mins prior to stress measured after 4 hrs relative to vehicle-treated control; type: functional, Stomach
Rattus norvegicus [32] = experiment: Antiulcer activity in albino Sprague-Dawley rat shay ulcer model assessed as ulcer index scores at 10 mg/kg administered intraduodenally post pyloric ligation measured after 18.5 hrs relative to vehicle-treated control; type: functional; details: route intraduodenal
Rattus norvegicus [33] = experiment: Antisecretory activity in Sprague-Dawley rat assessed as decrease in volume at 1 mg/kg, po administered 30 mins prior to pylorus ligation measured after 4 hrs relative to control; type: functional; parameters: scale not given: the % may be the effect or the level left
Rattus norvegicus [34] = experiment: Antisecretory activity in Sprague-Dawley rat assessed as decrease in volume at 2.5 mg/kg, po administered 30 mins prior to pylorus ligation measured after 4 hrs relative to control; type: functional; parameters: scale not given: the % may be the effect or the level left
Rattus norvegicus [35] = experiment: Antisecretory activity in Sprague-Dawley rat assessed as decrease in volume at 5 mg/kg, po administered 30 mins prior to pylorus ligation measured after 4 hrs relative to control; type: functional; parameters: scale not given: the % may be the effect or the level left
Rattus norvegicus [36] = experiment: Antisecretory activity in Sprague-Dawley rat assessed as decrease in volume at 10 mg/kg, po administered 30 mins prior to pylorus ligation measured after 4 hrs relative to control; type: functional; parameters: scale not given: the % may be the effect or the level left
Rattus norvegicus [37] = experiment: Antisecretory activity in Sprague-Dawley rat assessed as decrease in acidity at 1 mg/kg, po administered 30 mins prior to pylorus ligation measured after 4 hrs relative to control; type: functional; parameters: scale not given: the % may be the effect or the level left
Rattus norvegicus [38] = experiment: Antisecretory activity in Sprague-Dawley rat assessed as decrease in acidity at 2.5 mg/kg, po administered 30 mins prior to pylorus ligation measured after 4 hrs relative to control; type: functional; parameters: scale not given: the % may be the effect or the level left
Rattus norvegicus [39] = experiment: Antisecretory activity in Sprague-Dawley rat assessed as decrease in acidity at 5 mg/kg, po administered 30 mins prior to pylorus ligation measured after 4 hrs relative to control; type: functional; parameters: scale not given: the % may be the effect or the level left
Rattus norvegicus [40] = experiment: Antisecretory activity in Sprague-Dawley rat assessed as decrease in acidity at 10 mg/kg, po administered 30 mins prior to pylorus ligation measured after 4 hrs relative to control; type: functional; parameters: scale not given: the % may be the effect or the level left

Structure (SMILES): CN(C)CCCN1c2ccccc2Sc2ccc(Cl)cc21 [CHLORPROMAZINE]
- Activity (Rattus norvegicus [1]): 83%
- Activity (Rattus norvegicus [2]): 93%
- ED50 (Mus musculus [3]): 2.4 mg/kg
- Activity (Rattus norvegicus [4]): 37%
- Activity (Mus musculus [5]): 79%
- Activity (Rattus norvegicus [6]): 76%
- Activity (Rattus norvegicus [7]): 11%

Structure (SMILES): CN1C(=O)CN=C(c2ccccc2)c2cc(Cl)ccc21 [DIAZEPAM]
- ED50 (Mus musculus [3]): 4 mg/kg
- Activity (Rattus norvegicus [8]): 64%
- Activity (Mus musculus [5]): 95%
- Activity (Rattus norvegicus [9]): 15%
- Activity (Rattus norvegicus [10]): 60%
- minimal effective dose (Rhesus monkey): 1 mg/kg

Structure (SMILES): C#CCN1CCC2=C(C1)c1c(O)cc(C(C)CCCc3ccc(C)cc3)cc1OC2(C)C (stereo not given)
- Activity (Mus musculus [11]): 17%
- inhibition in vivo at 0.5 mg/kg (Rattus norvegicus [12]): 0%
- LD50 [13]: ≥ 1000 mg/kg
- inhibition in vivo at 16 mg/kg (Mus musculus [14]): 32%
- Activity (Rattus norvegicus [9]): 24%
- Activity (Rattus norvegicus [7]): 46%

Structure (SMILES): Cl.NC(=S)Cc1ccccn1
- UI (Rattus norvegicus [15]): 0.1
- UI (Rattus norvegicus [16]): 3.3
- Activity (Rattus norvegicus [17]): 35.5%
- Activity (Rattus norvegicus [18]): 47.3%
- Activity (Rattus norvegicus [19]): 81.8%
- Activity (Rattus norvegicus [20]): 95.5%
- Activity (Rattus norvegicus [21]): 29.3%
- Activity (Rattus norvegicus [22]): 43.1%
- Activity (Rattus norvegicus [23]): 92.6%
- Activity (Rattus norvegicus [24]): 45.8%
- Activity (Rattus norvegicus [25]): 19%
- Activity (Rattus norvegicus [26]): 8.4%
- Activity (Rattus norvegicus [27]): 31%
- Activity (Rattus norvegicus [28]): 58.9%
- UI (Rattus norvegicus [29]): 0
- UI (Rattus norvegicus [30]): 0
- UI (Rattus norvegicus [31]): 0.4
- UI (Rattus norvegicus [32]): 0.7
- Activity (Rattus norvegicus [33]): 33.1%
- Activity (Rattus norvegicus [34]): 35.8%
- Activity (Rattus norvegicus [35]): 64%
- Activity (Rattus norvegicus [36]): 76.7%
- Activity (Rattus norvegicus [37]): 3.8%
- Activity (Rattus norvegicus [38]): 17.4%
- Activity (Rattus norvegicus [39]): 49.8%
- Activity (Rattus norvegicus [40]): 86.3%
